Measurements as given in patent US20060280725A1, “Compositions and methods of treating and diagnosing hepatoma” (priority 2003, published 2006).
Read-outs that look alike come from different tables or passages of the source.

Tests used:
THLE-5B = test: Glutamine transport assay (inhibition and kinetic analysis); format: cell-based, human
Procedure: FIG. 1. Amino acid inhibition analysis of glutamine transport in the Hep3B, PLC/PRF/5 and Focus human hepatoma cell lines and the THLE-5B SV40-immortalized human liver epithelial cell line. The Na^+-dependent transport of 50 μM L-glutamine was measured as described in the Methods section in the absence or presence of the indicated unlabeled amino acids at 5 mM. Testing of cysteine (CYSH) required the presence of 5 mM dithiothreitol (DTT) as a reducing agent, so DTT was tested alone as well. Arrows indicate the relative transport rates for 50 μM L-glutamine in primary human adult (solid arrow) and fetal (open arrow) hepatocytes. The results represent the average±SD of four separate determinations (*p<0.010 versus control). The Eadie-Hofstee plots of the kinetic analyses are shown as an inset in each figure, with the dashed lines representing the resolved high and low affinity components of the composite data (solid line). The derived values of the kinetic constants for each component are given in the Results section.
(§1) Glutamine Transport Assays. Measurement of initial-rate glutamine uptake was carried out via the cluster-tray method originally described by Gazzola (21) as reported previously (6, 9). Briefly, after trypsinization hepatoma cells were plated at a density of 1×10^5 cells/well in 24-well culture plates (Costar Corp., Cambridge, Mass.) and allowed to grow to >80% confluence, typically one to two days later. For initial-rate measurements, the radiotracer utilized was L-[G-^3H] glutamine (Amersham Corp., Arlington Heights, Ill.) at 4 μCi/ml, in the presence of unlabeled L-glutamine at 50 μM. For kinetic studies, the amount of unlabeled glutamine in the transport buffer varied from 10 μM to 10 mM. All transport measurements were carried out at 37° C. and were terminated after 30 s by three rapid washes with an ice-cold phosphate-buffered saline solution. Intracellular radiolabeled glutamine was extracted with 0.2 ml/well of 0.2% sodium dodecyl sulfate (SDS) and 0.2 N NaOH; after 1 h, 0.1 ml of the lysate was neutralized with 10 μl of 2 N HCl and subjected to scintillation spectrophotometry in a Packard TopCount™ (Packard Instruments, Meriden, Conn.). The remaining lysate was utilized for the determination of cellular protein by the bicinchoninic acid (BCA) method (Pierce Chemical Co., Rockford, Ill.). Rates of glutamine transport were calculated from the cpm per sample, the specific activity of the uptake mix (in cpm/nmol) and normalized to cellular protein content in a Microsoft Excel® spreadsheet program. Transport values obtained in the absence of extracellular Na^+ (diffusion and Na^+-independent uptake) were subtracted from those in the presence of Na^+ (total uptake) to yield Na^+-dependent rates which are reported in units of nmol•mg^−1 protein•30 s^−1. All transport values depicted are the average±standard deviation of four separate determinations. Kinetic analysis of Eadie-Hofstee linearized transport data (v vs. v/[L-GLN]) was performed by regression analysis (Cricket Graph®, Computer Associates, Islandia, N.Y.). Nonlinear regression analysis was performed with DataDesk (Data Description, Inc. Ithaca, N.Y.) and Excel for two component Michaelis-Menten kinetics: v=((Vmax1×[S])/(Km1+[S])+(Vmax2×[S])/(Km2+[S])).
It should be noted that extensive depletion of intracellular amino acid pools were not performed prior to transport measurements in these studies because we sought to assess glutamine uptake under more physiological conditions. […]

Huh-7 = test: Glutamine transport assay (initial-rate uptake, kinetic analysis); format: cell-based, human
Procedure: as §1
Therefore, two component nonlinear regression analyses were performed on the Na^+-dependent transport kinetic data, where they were adequately resolved into high and low affinity components in all cell lines under study. The results are graphically depicted in FIG. 1 as insets. […] Possibilities for each cell line will be offered discussion based on the molecular analyses described below.

[1] = read-out: Km, high affinity component
[2] = read-out: Km, low affinity component

Km (THLE-5B; [1]): 135 µM | Km (THLE-5B; [2]): 1300 µM | Km (Huh-7; [1]): 50 µM | Km (Huh-7; [2]): 861 µM
Structure (SMILES): NC(=O)CC[C@H](N)C(=O)O [glutamine, L-glutamine]
Vmax, high affinity component (THLE-5B): 30.8 nmol•mg^−1 protein•30 s^−1 | Vmax, low affinity component (THLE-5B): 32.6 nmol•mg^−1 protein•30 s^−1 | Vmax, high affinity component (Huh-7): 7.3 nmol•mg^−1 protein•30 s^−1 | Vmax, low affinity component (Huh-7): 11.7 nmol•mg^−1 protein•30 s^−1
